# Entries after “also recorded” stand apart in the source; their conditions may differ. [5mC] = 5-methylcytosine
# Experiments:
# [1] = test system: C8161 human metastatic melanoma cells; test: Experimental metastasis assay, C8161 cells, treatment post tumour cell injection; type: in vivo, human cells in mice; settings: C8161 cells i.v. into SCID mice; treatment initiated after 2 days; lungs 5-7 weeks later
# Description: C8161 human melanoma cells were seeded into 100 mm tissue culture dishes at a density of 2×10^6 and incubated overnight at 37° C. in α-MEM medium supplemented with 10% FBS. The cells were trypsinized, collected by centrifugation and aliquots were removed from the suspension to determine the cell viability using trypan blue exclusion test. […] Treatment was initiated after 2 days. Estimates of the number of lung nodules were made 5-7 weeks later, after excised lungs from individual mice were stained with picric acid dye solution (75% picric acid, 20% formaldehyde, 5% glacial acetic acid).
# Murine R3 fibrosarcoma and human C8161 melanoma cells injected into the tail vein of mice form observable lung nodules 2 weeks post-injection. […] To more accurately reflect the clinical situation, mice were treated with SEQ ID NO:1 post tumour cell injection. C8161 human metastatic melanoma cells were seeded into 100 mm tissue culture dishes at a density of 2×10^6 and incubated overnight at 37° C. in α-MEM medium supplemented with 10% FBS. The cells were trypsinized, collected by centrifugation and aliquots were removed from the suspension to determine the cell viability using trypan blue exclusion test. Approximately 1×10^5 cells suspended in 0.1 ml of PBS were injected into the tail veins of 6-8 week old female SCID mice. Treatment was initiated after 2 days. Estimates of the number of lung nodules were made 5-7 weeks later, after excised lungs from individual mice were stained with picric acid dye solution (75% picric acid, 20% formaldehyde, 5% glacial acetic acid). The results are shown in FIG. 31, bars represent the mean number of nodules per mouse with standard error.
# [2] = test system: Hep G2 human liver cancer cells; test: HepG2 liver tumour growth in CD-1 nude mice (3.7); type: in vivo, human cells in mice; settings: Hep G2, CD-1 nude mice; 2.5 mg/kg i.v. every day, 30 days
# Description: Treatments lasted for 14 days thereafter. Antitumour activities were estimated by the inhibition of tumour volume, which was measured with a caliper on four different occasions over the treatment period. Each point represents mean tumour volume calculated from 5 animals per experimental group. […] Control animals (control) received saline alone for the same period. At the end of the treatments, the animals were sacrificed, tumours were excised and their weights were measured. Each bar represents mean tumour weight calculated from 6 animals per experimental group. […] Treatments lasted for 24 days thereafter. Antitumour activities were estimated by the inhibition of tumour volume, which was measured with a caliper at two-day intervals over the treatment period. Each point represents mean tumour volume calculated from 4 animals per experimental group. […] Treatments lasted for 24 days thereafter. Antitumour activities were estimated by the inhibition of tumour volume, which was measured with a caliper at two-day intervals over the treatment period. Each point represents mean tumour volume calculated from 4 animals per experimental group. […] Treatments lasted for 22 days thereafter. […] Each point represents mean tumour volume calculated from 5 animals per experimental group. […] Treatments lasted for 14 days thereafter. Antitumour activities were estimated by the inhibition of tumour volume, which was measured with a caliper on four different occasions over 16-day period. Each point represents mean tumour volume calculated from 5 animals per experimental group. […] Two different batches of SEQ ID NO:1, synthesized at different times (designated as batch 1 and batch 2), were tested to detect possible batch-specific effects. […] Treatments lasted for 34 days thereafter. Antitumour activities were estimated by the inhibition of tumour volume, which was measured with a caliper at two-day intervals over the treatment period. Each point represents mean tumour volume calculated from 5 animals per experimental group. […] Treatments lasted for 30 days thereafter. Antitumour activities were estimated by the inhibition of tumour volume, which was measured with a caliper at various time intervals over the span of 30 days. Each point represents mean tumour volume calculated from 6 animals per experimental group. […] All treatments were stopped at day 36. Antitumour activities were estimated by the inhibition of tumour volume, which was measured with a caliper. Each point represents mean tumour volume calculated from 5 animals per experimental group. […] All treatments were stopped at day 52. […] Antitumour activities were estimated by the inhibition of tumour volume, which was measured with a caliper.
# [3] = test system: MDA-MB-231 human breast cancer cells; test: MDA-MB-231 breast tumour xenograft in CD-1 nude mice, combination with taxol or doxorubicin (1.7); type: in vivo, human cells in mice; settings: MDA-MB-231, CD-1 nude mice; oligonucleotides 10 mg/kg i.v. every other day; taxol 10 mg/kg, doxorubicin 5 mg/kg i.v. weekly
# Description: After 52 days the mice were sacrificed and the tumours weighed. […] Mitoxantrone was administered intravenously once at the beginning of the treatments at a dose of 2 mg/kg (FIG. 4A) or once a week for four weeks at a reduced dose of 0.8 mg/kg (FIG. 4B). All treatments were stopped at day 50 (FIG. 4A) or 48 (FIG. 4B), respectively. […] Mitoxantrone was administered intravenously once at the beginning of the treatments at a dose of 2 mg/kg (FIG. 5A) or once a week for four weeks at a reduced dose of 0.8 mg/kg (FIG. 5B). All treatments were stopped at day 42 (FIG. 5A) or 38 (FIG. 5B), respectively. […] A2058 is a metastatic melanoma cell line. […] All treatments were stopped at day 24. […] Taxol was administered intravenously once a week at a dose of 10 mg/kg for three (FIG. 7A) or four weeks (FIG. 7C). Doxorubicin was administered intravenously once a week at a dose of 5 mg/kg for first three weeks (FIG. 7A) or for two weeks (FIG. 7C). All treatments were stopped at day 33 (FIG. 7A) or at day 26 (FIG. 7C), respectively. […] In FIG. 7C, antitumour activities were estimated by the inhibition of tumour volume, which was measured with calipers. Each point represents mean tumour volume calculated from 10 animals per experimental group. […] Taxol was administered intravenously once a week for first three weeks and intraperitoneally once a week for next two weeks at a dose of 10 mg/kg. Cisplatin was administered intravenously once a week for first three weeks and intraperitoneally once a week for next two weeks at a dose of 4 mg/kg. All treatments were stopped at day 40. Antitumour activities were estimated by the inhibition of tumour volume, which was measured with caliper. Each point represents mean tumour volume calculated from 9 animals per experimental group.
# [4] = test system: human Burkitt's lymphoma (Raji) cells; test: Survival of SCID mice bearing human Burkitt's lymphoma (Raji); type: in vivo, human cells in mice; settings: 10 mg/kg i.v. every second day
# Description: Mice with established human Burkitt's lymphoma tumours were treated every second day with either saline or SEQ ID NO:1 for 44 days as described above. The control group mice all died from disease progression by day 20. At day 44, the SEQ ID NO:1 mice continued treatment on a weekly basis until stopping the treatment at day 73.
# As an additional test of efficacy SEQ ID NO:1 was administered to SCID mice bearing active Burkitt's lymphoma (FIG. 30). Viable human Burkitt's lymphoma (Raji) cells (5×10^6) collected from subconfluent logarithmically growing cultures were injected i.v. into each animal and disease was allowed to establish for 2 days. SEQ ID NO:1, SEQ ID NO:3 and SEQ ID NO:2, in normal saline were administered by tail vein injection every second day at a dose of 10 mg/kg. At day 40 the treatment schedule was reduced to 10 mg/kg every 3 days. Control animals received saline alone, without oligonucleotide. Survival is presented as a percentage of the starting number of mice over time.
# [5] = test system: HT-29 human colon cancer cells; settings: SEQ ID NO:1 6 mg/kg i.v. every day, mitomycin C 3.5 mg/kg/week i.v.
# Description: • 1.1 HT-29 human colon cancer cells (3×10^6 cells in 100 μl of PBS) were subcutaneously injected into the right flank of 6-7 weeks old female CD-1 nude mice. After the size of tumour reached an approximate volume of 50 mm^3, 4 days post tumour cell injection, mitomycin C was administered by bolus infusion into the tail vein at days 4, 11 and 18 with a dose of 3.5 mg/kg/week. […] SEQ ID NO:1 was administered by bolus infusion into the tail vein every day at 6 mg/kg and mitomycin C was administered intravenously at days 4, 11 and 18 with a dose of 3.5 mg/kg/week, one hour after the treatments with SEQ ID NO:1. Control animals received saline alone for the same period as SEQ ID NO:1. All treatments were stopped at day 22. A day after the last treatment, tumours were excised from the animals and their weights were measured.
# [6] = test system: HT29 tumour xenografts; test: HT29 tumour xenografts in CD-1 nude mice, methylated oligonucleotides; type: in vivo, human cells in mice; settings: compared with SEQ ID NO:1
compound,measurement,setting,value
"5′-ACGCACTCAGCTAGTGACAC-3′ (listed as DNA, chemistry not given here) [SEQ ID NO:3, reference compound]",Lung nodule formation / anti-metastatic activity (FIG. 31),[1],no anti-metastatic activity
same,"Inhibitory effect on tumour growth (tumour volume, FIG. 20)",[2],did not differ from that in saline treated mice
same,"Antitumour effect (tumour weight / volume, FIG. 7)",[3],no significant anti-tumour activity as a monotherapy; also recorded: does not cooperate with doxorubicin
same,Survival of mice,"[4]; SCID mice (Example 7, FIG. 30), from day 40 every 3 days",neither SEQ ID NO:3 nor SEQ ID NO:2 control ODNs prolonged survival
same,Survival of mice,"[4]; SCID mice, stopped at day 42, sacrificed day 73, untreated all died within 23 days",no observed efficacy
"CO[C@@]12[C@H](COC(N)=O)C3=C(C(=O)C(C)=C(N)C3=O)N1C[C@@H]1N[C@@H]12 [Mitomycin C, mitomycin C]",Tumour weight as % of saline control,"[5]; HT-29 (colon), SCID mouse as printed",15%
same,"Antitumour effect (tumour weight, FIG. 1)","[5]; HT-29, CD-1 nude mice",significant delay of tumour growth compared to saline control
"SEQ ID NO:4: SEQ ID NO:1 with methylation at the CpG (C9) (GGCTAAATCGCTCCACCAAG; [5mC] at 9, all phosphorothioate, sugars by position and methylation of C not given here)",Anti-tumour activity (FIG. 33),[6],"does not abrogate the anti-tumour activity of SEQ ID NO:1; also recorded: measurable, but not significant, effect on the anti-tumour activity"
"SEQ ID NO:5: control oligonucleotide (met-11C) (GGCTAAATCGCTCCACCAAG; listed as DNA, chemistry not fully specified) [reference compound]",Anti-tumour activity (FIG. 33),[6],"measurable, but not significant, effect on the anti-tumour activity"
